This passage reports logP results from the OPERA property sets (Mansouri et al. 2018).

By logP is commonly meant the decadic logarithm of the partition coefficient of the neutral form, usually between octanol and water. Low readings indicate a more hydrophilic compound, high ones a more lipophilic compound.

For the compound `CCOc1cncc(OC)n1`, the logP amounted to 1.98.
`CCc1ncc(C)nc1CC` showed a logP of 1.95.
With `COc1cncc(C#N)n1`, the logP was found to be 0.95.
In the case of `COc1cncc(C)n1` it was 1.29.
In the case of `COc1nccnc1C` it was 1.24; in that of `COc1cncc(NC(C)=O)n1`, 0.82.
On to `CN(C)c1cncc(C#N)n1`, for which the log partition coefficient (logP) worked out at 1.12.
`Cc1cncc(C)n1` showed a logP of 0.54.
The compound `COc1cnc(N)cn1` returned a logP of 0.63.
The same measure for `COc1cnc(OC)cn1`: 1.14.
Compound `Cc1nccnc1OC(C)C` had a lipophilicity (logP) of 2.24.
Turning to `COc1cnc(N(C)C)cn1`, the logP is 1.65.
Turning to `COc1cnc(Cl)cn1`, the logP was 1.52.
Compound `CC(=O)Nc1cnc(Cl)cn1` registered a lipophilicity (logP) of 0.56.
In the case of `CCOC(=O)c1cncc(OC)n1` it was 1.2.
In the case of `CCc1nc(C#N)c(C#N)nc1Cl` it was 1.79.
`CCc1nccnc1C` returned a logP of 1.07.
Compound `CN(C)c1cncc(C(N)=O)n1` registered a logP of 0.38.
On to `CCOC(=O)c1cncc(C)n1`, for which the log partition coefficient (logP) stood at 0.51.
The same measure for `Cc1cnc(C)c(Cl)n1`: 1.5; for `Cc1nc(C)c(C)nc1C`: 1.28.
`Cc1cnc(C)c(C)n1`: the lipophilicity (logP) came out at 0.95.
`CCOC(=O)c1cncc(N(C)C)n1` showed a lipophilicity (logP) of 1.24.
In the case of `Cc1cnc(C(N)=O)cn1`, the logP was -0.25.
Compound `CCCCc1nccnc1C` came in with a log partition coefficient (logP) of 2.1.
The same measure for `CSc1nccnc1C`: 1.81.
With `COC(=O)c1cncc(N(C)C)n1`, the logP turned out to be 0.9.
The same measure for `Clc1cnc(Cl)cn1`: 1.58.
In the case of `CN(C)c1cnc(Cl)cn1` it was 1.7.
In turn, `Cc1cncc(N)n1` returned a logP of 0.35.
In the case of `COC(=O)c1cncc(C)n1` it was 0.1; in that of `Cc1cnc(Cl)cn1`, 1.08; in that of `CCOC(=O)c1cnc(C)cn1`, 0.61.
In the case of `CCCc1nccnc1C` it was 1.57; in that of `CCOc1cncc(C(N)=O)n1`, 0.61; in that of `COc1cncc(OC)n1`, 1.58.
Turning to `CC(=O)Nc1cncc(C)n1`, the logP stood at 0.38.
In the case of `COC(=O)c1cncc(OC)n1`, the log partition coefficient (logP) came out at 0.69.
In turn, `Cc1cnc(C#N)cn1` registered a logP of 0.26.
Compound `COc1ccnc(C#N)n1` had a logP of 0.86.
`Cc1cncc(C#N)n1` yielded a logP of 0.44.
Regarding `Cc1nccnc1C`, the logP came out at 0.54.
`COC(=O)c1cnc(C)cn1` had a logP of 0.17.
`COc1cncc(N(C)C)n1` yielded a logP of 1.99.
As to `COC(=O)c1nccnc1C(=O)OC`, the lipophilicity (logP) was -0.02.
The compound `CCCCc1nc(C#N)c(C#N)nc1Cl` came in with a log partition coefficient (logP) of 2.89.
`COC(=O)c1ccc(Br)o1` displayed a logP of 1.84.
Compound `CCOC(=O)c1nccnc1C(=O)OCC` displayed a logP of 0.65.
For the compound `CCc1nccnc1CC`, the lipophilicity (logP) is 1.51.
On to `COc1cncc(C(N)=O)n1`, for which the logP was 0.13.
For the compound `Cc1nc(C#N)c(C#N)nc1Cl`, the log partition coefficient (logP) turned out to be 1.29.
In the case of `Cc1cncc(C(N)=O)n1` it was -0.13; in that of `CCOc1cnc(Cl)cn1`, 1.99.
`Cc1cncc(N(C)C)n1` showed a logP of 1.57.
The compound `N#Cc1nccnc1C#N` showed a lipophilicity (logP) of 0.38.
In turn, `CCOc1cncc(OCC)n1` gave a lipophilicity (logP) of 2.55.
Regarding `COc1cncc(N)n1`, the logP came to 0.73.
As for `Nc1cncc(N)n1`, the logP is -0.45.
